Measurements published in BindingDB's records for doi:10.1021/jm00107a034 (Sterling Research Group, 1991).

Key:
[1] = Concentration required to inhibit 50% activity of prostaglandin synthetase was determined in mouse vas deferens
[2] = Concentration required to inhibit 50% activity of prostaglandin synthetase was determined in vitro in mouse brain microsomes

Compound	IC50 [1]	IC50 [2]
Cc1c(C(=O)c2cccc3ccccc23)c2ccccc2n1CCN1CCOC(O)C1 (centres undefined)	0.57 µM	–
COc1ccc(C(=O)c2cn(CCN3CCOCC3)c3ccccc23)cc1	5 µM	> 30 µM
COc1ccc(C(=O)c2c(C)n(CCN3CCOCC3)c3ccccc23)cc1 [(s-cis) -(4-Methoxy-phenyl)-[2-methyl-1-(2-morpholin-4-yl-ethyl)-1H-indol-3-yl]-methanone]	> 30 µM	–
